Where two headings read alike, the source gives them in different places.
Key:
[1] = Compound toxicity by ATPlite 1 Step (total ATP levels) in HepAD38 cells; type: cell-based; details: human, day of harvest, concentration reducing total ATP levels by 50% relative to no drug controls
Experimental: (§1) Methods: HepAD38 cells are maintained as previously reported (Ladner et al, Antimicrob. Agents Chemother. 1997, […], 1715). Briefly, cells are passaged upon attaining confluency in DMEM/F12 media in the presence of 10% FBS, Penn/Strep, 250 μg/mL G418, and 1 μg/ml tetracycline. Novel compounds are screened by first washing cells three times with PBS to remove tetracycline, and plating in 96 well plates at 35,000 cells/well. Compounds dissolved in DMSO are then diluted 1:200 into wells containing cells. Five days after compound addition, material is harvested for analysis. For an extended 8 day analysis, cells are plated and treated as described above, but media and compound are refreshed on d2 and d5 post initial treatment.
Additionally, on day of harvest, compound toxicity is evaluated by treating cells with ATPlite 1 Step according to the manufacturer's protocol. Compound concentrations that reduce total ATP levels in wells by 50% relative to no drug controls (CC50) are reported; CC50 ranges are as follows: A>30 μM; B 10-30 μM; C<10 μM.

HBV = assay: HepAD38 antiviral screen: reduction of viral product accumulation (virion DNA by qPCR; HBsAg/HBeAg ELISA); type: cell-based; details: Hepatitis B virus
Experimental: as §1
On harvest day, virion DNA is obtained by lysing with Sidestep Lysis and Stabilization Buffer and then quantified via quantitative real time PCR. Commercially available ELISA kits are used to quantitate the viral proteins HBsAg (Alpco) or HbeAg (US Biological) by following the manufacturer's recommended protocol after diluting samples to match the linear range of their respective assays. Irrespective of readout, compound concentrations that reduce viral product accumulation in the cell lysates or supernatants by relative to no drug controls (EC50) are reported; EC50 ranges are as follows: A<1 μM; B 1-10 μM; C>10 μM.

[2] = 120 h, HepAD38 cells, harvest five days after compound addition, reduction of viral product accumulation relative to no drug controls, read-out: HepAD38 EC50

SMILES | CC50 [1] [µM] | EC50 (HBV; HePAD38, 120 h, read-out: HepAD38 EC50 (μM)) [µM] | EC50 (HBV; [2]) [µM]
CCOP(=O)(OCC)C1=C(C)NC(c2nccs2)=NC1c1ccc(F)cc1Cl (racemic) [Example 26] | > 30 | > 10 | –
Cn1ccc(C2=C(CO)NC(c3nccs3)=NC2c2ccc(F)cc2Cl)n1 (stereo not shown) [Example 41] | 10 to 30 | – | < 1
CCn1ccc(C2=C(C)NC(c3nccs3)=NC2c2ccc(F)cc2Cl)n1 (stereo not shown) [Example 34] | > 30 | – | < 1
CC1=C(CN(C)C)C(c2ccc(F)cc2Cl)N=C(c2nccs2)N1 (racemic) [Example 8] | > 30 | – | > 10
CC1=C(c2ccn(C)n2)[C@H](c2ccc(F)cc2Cl)N=C(c2nccs2)N1 (single isomer, unassigned) [Example 16b] | > 30 | – | < 1
CC1=C(c2nccn2C)C(c2ccc(F)cc2Cl)N=C(c2nccs2)N1 (stereo not shown) [Example 33] | > 30 | – | 1 to 10
CC1=C(C(=O)N(C)S(C)(=O)=O)C(c2ccc(F)cc2Cl)N=C(c2nccs2)N1 (racemic) [Example 22] | > 30 | – | > 10
CC1=C(c2ccccn2)C(c2ccc(F)cc2Cl)N=C(c2nccs2)N1 (racemic) [Example 19] | > 30 | – | 1 to 10
Cn1ccc(C2=C(CN3CCOCC3)NC(c3nccs3)=N[C@H]2c2ccc(F)cc2Cl)n1 [Example 53] | – | – | < 1
C=CCOC(=O)C1=CNC(c2nccs2)=NC1(C)c1ccc(F)cc1 (stereo not shown) [Example 51] | – | – | 1 to 10
CC1=C(c2cc(C)no2)C(c2ccc(F)cc2Cl)N=C(c2nccs2)N1 (racemic) [Example 15] | > 30 | – | < 1
CC1=C(c2ncco2)C(c2ccc(F)cc2Cl)N=C(c2nccs2)N1 (racemic) [Example 13] | > 30 | – | < 1
CC(=O)C1=C(C)NC(c2nccs2)=NC1c1ccc(F)cc1Cl (racemic) [Example 11] | > 30 | – | < 1
CC1=C(C#N)C(c2ccc(F)cc2Cl)N=C(c2nccs2)N1 (stereo not shown) [Example 32] | > 30 | – | < 1
CC1=C(c2nn[nH]n2)C(c2ccc(F)cc2Cl)N=C(c2nccs2)N1 (stereo not shown) [Example 27] | > 30 | – | > 10
CCOC(=O)[C@@H]1CC(F)(F)CC1CC1=C(C#N)C(c2ccc(F)cc2Cl)N=C(c2nccs2)N1 (stereo partly shown) [Example 5] | > 30 | – | 1 to 10
CCOC(=O)C1=C(C)NC(N2CCCC2)=NC1c1ccc(F)cc1Cl (stereo not shown) [Example 30] | > 30 | – | > 10
CC1=C(S(C)(=O)=O)C(c2ccc(F)cc2Cl)N=C(c2nccs2)N1 (racemic) [Example 25] | > 30 | – | > 10
COC(=O)/C=C1\NC(c2nccs2)=NC(c2ccc(F)cc2Cl)C1c1ccn(C)n1 (stereo not shown) [Example 45] | 10 to 30 | – | 1 to 10
CC1=C(c2ncco2)[C@H](c2ccc(F)cc2Cl)N=C(c2nccs2)N1 (single isomer, unassigned) [Example 13b] | > 30 | – | < 1

SMILES | CC50 [1] [µM] | EC50 (HBV; HePAD38, 120 h, read-out: HepAD38 EC50 (μM)) [µM] | EC50 (HBV; [2]) [µM]
CN(C)CC1=C(c2ccn(C)n2)C(c2ccc(F)cc2Cl)N=C(c2nccs2)N1 (stereo not shown) [Example 37] | 10 to 30 | – | > 10
CCOC(=O)C1=C(C)NC(N2CCCC2=O)=NC1c1ccc(F)cc1Cl (stereo not shown) [Example 29] | > 30 | – | > 10
Cn1ccc(C2=C(CN=[N+]=[N-])NC(c3nccs3)=NC2c2ccc(F)cc2Cl)n1 (stereo not shown) [Example 42] | > 30 | – | < 1
Cn1ccc(C2=C(CN3C4CCC3CC(O)C4)NC(c3nccs3)=N[C@H]2c2ccc(F)cc2Cl)n1 (stereo partly shown) [Example 54] | – | – | 1 to 10
CC1=C(CO)C(c2ccc(F)cc2Cl)N=C(c2nccs2)N1 (racemic) [Example 9] | > 30 | – | 1 to 10
CC1=C(c2ncccn2)C(c2ccc(F)cc2Cl)N=C(c2nccs2)N1 (racemic) [Example 20] | > 30 | – | 1 to 10
CC1=C(c2ncco2)[C@@H](c2ccc(F)cc2Cl)N=C(c2nccs2)N1 (single isomer, unassigned) [Example 13a] | > 30 | – | 1 to 10
Cn1ccc(C2=C(CF)NC(c3nccs3)=NC2c2ccc(F)cc2Cl)n1 (stereo not shown) [Example 43] | > 30 | – | < 1
CCOC(=O)C1=CNC(c2nccs2)=NC1(C)c1ccc(F)cc1 (stereo not shown) [Example 49] | – | – | 1 to 10
Cn1ccc(C2=CNC(c3nccs3)=NC2(C)c2ccc(F)cc2)n1 (stereo not shown) [Example 50] | – | – | 1 to 10
CCOC(=O)C1=C(CN2CC(F)(F)C[C@H]2C#N)NC(c2nccs2)=NC1c1ccc(F)cc1Cl (stereo partly shown) [Example 3] | > 30 | – | < 1
CCOC(=O)C1=C(CC2CC(F)(F)C[C@H]2C(=O)O)NC(c2nccs2)=NC1C1CCCC1 (stereo partly shown) [Example 7] | > 30 | – | 1 to 10
CCOC(=O)[C@@H]1CC(F)(F)CN1CC1=C(C(=O)NS(C)(=O)=O)C(c2ccc(F)cc2Cl)N=C(c2nccs2)N1 (stereo partly shown) [Example 4] | > 30 | – | > 10
C=CC1=C(C)NC(c2nccs2)=NC1c1ccc(F)cc1Cl (racemic) [Example 12] | > 30 | – | < 1
Cn1ccc(C2=C(CC#N)NC(c3nccs3)=NC2c2ccc(F)cc2Cl)n1 (stereo not shown) [Example 40] | > 30 | – | 1 to 10
CC1=C(c2ccn(C)n2)C(c2ccc(F)cc2Cl)N=C(c2nccs2)N1 (racemic) [Example 16] | > 30 | – | < 1
CCOC(=O)C1=C(CN2CC(F)(F)C[C@H]2C(=O)NS(C)(=O)=O)NC(c2nccs2)=NC1c1ccc(F)cc1Cl (stereo partly shown) [Example 2] | > 30 | – | 1 to 10
Cn1ccc(C2=C(CN3CC(F)(F)C[C@H]3C(=O)O)NC(c3nccs3)=NC2c2ccc(F)cc2Cl)n1 (stereo partly shown) [Example 38] | > 30 | – | < 1
CCOC(=O)C1=C(CN2CCC[C@H]2C(=O)NS(C)(=O)=O)NC(c2nccs2)=NC1c1ccc(F)cc1Cl (stereo partly shown) [Example 1] | 10 to 30 | – | 1 to 10
Cn1ccc(C2=C(CC(=O)O)NC(c3nccs3)=NC2c2ccc(F)cc2Cl)n1 (stereo not shown) [Example 46] | 10 to 30 | – | > 10

SMILES | CC50 [1] [µM] | EC50 (HBV; HePAD38, 120 h, read-out: HepAD38 EC50 (μM)) [µM] | EC50 (HBV; [2]) [µM]
CC1=C(c2ccn(C)n2)[C@@H](c2ccc(F)cc2Cl)N=C(c2nccs2)N1 (single isomer, unassigned) [Example 16a] | > 30 | – | < 1
CCOC(=O)C1=C(CC2CCC[C@H]2C(=O)O)NC(c2nccs2)=NC1C1CCCCC1 (stereo partly shown) [Example 6] | > 30 | – | > 10
CCOC(=O)[C@@H]1CC(F)(F)CN1CC1=C(c2ccn(C)n2)C(c2ccc(F)cc2Cl)N=C(c2nccs2)N1 (stereo partly shown) [Example 39] | > 30 | – | < 1
CC1=C(C(=O)NS(C)(=O)=O)C(c2ccc(F)cc2Cl)N=C(c2nccs2)N1 (racemic) [Example 21] | > 30 | – | > 10
CC1=C(c2ncco2)C(C)(c2ccc(F)cc2Cl)N=C(c2nccs2)N1 (stereo not shown) [Example 47] | – | – | > 10
CC1=C(c2nccs2)C(c2ccc(F)cc2Cl)N=C(c2nccs2)N1 (racemic) [Example 14] | > 30 | – | < 1
COCC1=C(c2ccn(C)n2)C(c2ccc(F)cc2Cl)N=C(c2nccs2)N1 (stereo not shown) [Example 35] | > 30 | – | < 1
Cn1ccc(C2=CNC(c3nccs3)=NC2c2ccc(F)cc2Cl)n1 (stereo not shown) [Example 36] | > 30 | – | < 1
CC1=C(c2ccccc2)C(c2ccc(F)cc2Cl)N=C(c2nccs2)N1 (racemic) [Example 18] | 10 to 30 | – | < 1
Cn1ccc(C2=C(CN3C4CCC3COC4)NC(c3nccs3)=N[C@H]2c2ccc(F)cc2Cl)n1 [Example 52] | – | – | < 1
CC1=C(c2ccn(C)n2)C(C)(c2ccc(F)cc2Cl)N=C(c2nccs2)N1 (stereo not shown) [Example 48] | – | – | > 10
COCC1=C(C)NC(c2nccs2)=NC1c1ccc(F)cc1Cl (racemic) [Example 10] | > 30 | – | 1 to 10
CCOC(=O)C1=CNC(c2nccs2)=NC1(C)c1ccc(F)cc1Cl (stereo not shown) [Example 57] | – | – | 1 to 10
COC(=O)CC1=C(c2ccn(C)n2)C(c2ccc(F)cc2Cl)N=C(c2nccs2)N1 (stereo not shown) [Example 44] | > 30 | – | 1 to 10
CC1=C(c2ccnn2C)C(c2ccc(F)cc2Cl)N=C(c2nccs2)N1 (racemic) [Example 17] | > 30 | – | < 1
CNS(=O)(=O)C1=C(C)NC(c2nccs2)=NC1c1ccc(F)cc1Cl (stereo not shown) [Example 28] | > 30 | – | > 10
CCOC(=O)C1=C(C)NC(C(=O)OC)=NC1c1ccc(F)cc1Cl (stereo not shown) [Example 31] | > 30 | – | 1 to 10
COC(=O)[C@@H]1CCC[C@H]1N1C[C@@H]2CN(CC3=C(c4ccn(C)n4)[C@H](c4ccc(F)cc4Cl)N=C(c4nccs4)N3)CCN2C1=O [Example 55] | – | – | 1 to 10
